Experimental data as given in ChEMBL document CHEMBL1127439, “Structure-activity relationship studies of central nervous system agents. 13. 4-[3-(Benzotriazol-1-yl)propyl]-1-(2-methoxyphenyl)piperazine, a new putative 5-HT1A receptor antagonist, and its analogs” (J Med Chem, 1994).

Legend:
[1] = target: Serotonin 2 (5-HT2) receptor (Rattus norvegicus, UniProt P30994+P08909+P14842); assay: Tested in vitro for receptor binding affinity against 5-hydroxytryptamine 2 receptor using radioligand [3H]ketanserin; type: protein assay
[2] = target: T1, 5-hydroxytryptamine receptor 1A (Rattus norvegicus, UniProt P19327); assay: Tested in vitro for receptor binding affinity against 5-hydroxytryptamine 1A receptor using radioligand [3H]8-OH-DPAT
T1 sequence (P19327 whole entry): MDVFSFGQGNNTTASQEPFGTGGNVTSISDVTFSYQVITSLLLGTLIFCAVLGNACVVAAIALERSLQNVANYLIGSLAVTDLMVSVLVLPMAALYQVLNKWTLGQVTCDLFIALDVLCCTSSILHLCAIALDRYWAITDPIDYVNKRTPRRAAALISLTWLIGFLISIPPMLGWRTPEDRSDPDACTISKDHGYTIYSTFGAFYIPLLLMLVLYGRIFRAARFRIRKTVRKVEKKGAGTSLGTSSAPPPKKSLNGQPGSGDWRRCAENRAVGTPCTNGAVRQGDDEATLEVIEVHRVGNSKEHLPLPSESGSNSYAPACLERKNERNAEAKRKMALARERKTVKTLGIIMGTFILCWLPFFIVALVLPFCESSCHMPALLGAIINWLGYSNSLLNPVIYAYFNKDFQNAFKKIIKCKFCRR

Rattus norvegicus [3] = species on record: Rattus norvegicus; assay: Selectivity is the ratio between Ki values of 5-HT2 and 5-HT1A
Mus musculus [4] = assay: Effect on body temperature in mice at intraperitoneal dosage of 16 mg/kg, (compound administered 30 min before the test) after 75 min; type: functional
Mus musculus [5] = assay: Effect on body temperature in mice at intraperitoneal dosage of 8 mg/kg, (compound administered 30 min before the test) after 30 min; type: functional
Mus musculus [6] = assay: Effect on 8-OH-DPAT-induced hypothermia in mice (5 mg/kg) at intraperitoneal dosage of 8 mg/kg of compound after 15 mins; type: functional
Mus musculus [7] = assay: Effect on 8-OH-DPAT-induced hypothermia in mice (5 mg/kg) at intraperitoneal dosage of 4 mg/kg of compound after 30 mins; type: functional
Mus musculus [8] = assay: Effect on body temperature in mice at intraperitoneal dosage of 8 mg/kg, (compound administered 30 min before the test) after 45 min; type: functional
Mus musculus [9] = assay: Effect on 8-OH-DPAT-induced hypothermia in mice (5 mg/kg) at intraperitoneal dosage of 8 mg/kg of compound after 60 mins; type: functional
Mus musculus [10] = assay: Effect on body temperature in mice at intraperitoneal dosage of 4 mg/kg, (compound administered 30 min before the test) after 60 min; type: functional
Mus musculus [11] = assay: Effect on 8-OH-DPAT-induced hypothermia in mice (5 mg/kg) at intraperitoneal dosage of 16 mg/kg of compound after 15 mins; type: functional
Rattus norvegicus [12] = assay: Tested for the effect on 8-OH-DPAT-induced behavior in reserpine pretreated rat against flat body posture at dosage of 8 mg/kg; type: functional
Mus musculus [13] = assay: Effect on body temperature in mice at intraperitoneal dosage of 16 mg/kg, (compound administered 30 min before the test) after 90 min; type: functional
Rattus norvegicus [14] = assay: Tested for the effect on 8-OH-DPAT-induced behavior in reserpine pretreated rat against flat body posture at dosage of 4 mg/kg; type: functional
Mus musculus [15] = assay: Effect on body temperature in mice at intraperitoneal dosage of 8 mg/kg, (compound administered 30 min before the test) after 60 min; type: functional
Rattus norvegicus [16] = assay: Tested for the induction of lower lip retraction (LLR) by the investigated compounds in rat at dosage of 16 mg/kg; type: functional
Mus musculus [17] = assay: Effect on body temperature in mice at intraperitoneal dosage of 4 mg/kg, (compound administered 30 min before the test) after 75 min; type: functional
Mus musculus [18] = assay: effect on body temperature in mice at intraperitoneal dosage of 16 mg/kg, (compound administered 30 min before the test) after 45 min; type: functional
Rattus norvegicus [19] = assay: Tested for the effect on 8-OH-DPAT-induced behavior in reserpine pretreated rat against flat body posture at dosage of 16 mg/kg; type: functional
Rattus norvegicus [20] = assay: Tested for the induction of lower lip retraction (LLR) by the investigated compounds in rat at dosage of 4 mg/kg; type: functional
Mus musculus [21] = assay: Effect on body temperature in mice at intraperitoneal dosage of 16 mg/kg, (compound administered 30 min before the test) after 30 min; type: functional
Mus musculus [22] = assay: Effect on body temperature in mice at intraperitoneal dosage of 8 mg/kg, (compound administered 30 min before the test) after 90 min; type: functional
Rattus norvegicus [23] = assay: Tested for the effect on 8-OH-DPAT-induced behavior in reserpine pretreated rat against forepaw treading at dosage of 16 mg/kg; type: functional
Mus musculus [24] = assay: Effect on 8-OH-DPAT-induced hypothermia in mice (5 mg/kg) at intraperitoneal dosage of 8 mg/kg of compound after 30 mins; type: functional
Mus musculus [25] = assay: Effect on body temperature in mice at intraperitoneal dosage of 4 mg/kg, (compound administered 30 min before the test) after 30 min; type: functional
Rattus norvegicus [26] = assay: Tested for the effect on 8-OH-DPAT-induced lower lip retraction (LLR) in rat at dosage of 8 mg/kg; type: functional
Mus musculus [27] = assay: Effect on 8-OH-DPAT-induced hypothermia in mice (5 mg/kg) at intraperitoneal dosage of 16 mg/kg of compound after 60 mins; type: functional
Mus musculus [28] = assay: Effect on body temperature in mice at intraperitoneal dosage of 16 mg/kg, (compound administered 30 min before the test) after 60 min; type: functional
Mus musculus [29] = assay: Effect on body temperature in mice at intraperitoneal dosage of 4 mg/kg, (compound administered 30 min before the test) after 90 min; type: functional
Mus musculus [30] = assay: Effect on 8-OH-DPAT-induced hypothermia in mice (5 mg/kg) at intraperitoneal dosage of 16 mg/kg of compound after 30 mins; type: functional
Rattus norvegicus [31] = assay: Tested for the effect on 8-OH-DPAT-induced lower lip retraction (LLR) in rat at dosage of 4 mg/kg; type: functional
Rattus norvegicus [32] = assay: Tested for the effect on 8-OH-DPAT-induced behavior in reserpine pretreated rat against forepaw treading at dosage of 4 mg/kg; type: functional
Mus musculus [33] = assay: Effect on body temperature in mice at intraperitoneal dosage of 4 mg/kg, (compound administered 30 min before the test) after 45 min; type: functional
Mus musculus [34] = assay: Effect on 8-OH-DPAT-induced hypothermia in mice (5 mg/kg) at intraperitoneal dosage of 4 mg/kg of compound after 60 mins; type: functional
Rattus norvegicus [35] = assay: Tested for the effect on 8-OH-DPAT-induced lower lip retraction (LLR) in rat at dosage of 16 mg/kg; type: functional
Rattus norvegicus [36] = assay: Tested for the effect on 8-OH-DPAT-induced lower lip retraction (LLR) in rat at dosage of 2 mg/kg; type: functional
Mus musculus [37] = assay: Effect on 8-OH-DPAT-induced hypothermia in mice (5 mg/kg) at intraperitoneal dosage of 4 mg/kg of compound after 45 mins; type: functional
Rattus norvegicus [38] = assay: Tested for the induction of lower lip retraction (LLR) by the investigated compounds in rat at dosage of 2 mg/kg; type: functional
Mus musculus [39] = assay: Effect on body temperature in mice at intraperitoneal dosage of 8 mg/kg, (compound administered 30 min before the test) after 75 min; type: functional
Rattus norvegicus [40] = assay: Tested for the induction of lower lip retraction (LLR) by the investigated compounds in rat at dosage of 8 mg/kg; type: functional
Mus musculus [41] = assay: Effect on 8-OH-DPAT-induced hypothermia in mice (5 mg/kg) at intraperitoneal dosage of 16 mg/kg of compound after 45 mins; type: functional
Rattus norvegicus [42] = assay: Tested for the effect on 8-OH-DPAT-induced behavior in reserpine pretreated rat against forepaw treading at dosage of 8 mg/kg; type: functional
Mus musculus [43] = assay: Effect on 8-OH-DPAT-induced hypothermia in mice (5 mg/kg) at intraperitoneal dosage of 4 mg/kg of compound after 15 mins; type: functional
Mus musculus [44] = assay: Effect on 8-OH-DPAT-induced hypothermia in mice (5 mg/kg) at intraperitoneal dosage of 8 mg/kg of compound after 45 mins; type: functional

COc1ccccc1N1CCN(CCn2nnc3ccccc32)CC1
Ki [1]: 1620 nM | Ki [2]: 42 nM | Selectivity (Rattus norvegicus [3]): 39

COc1ccccc1N1CCN(CCCn2nc3ccccc3n2)CC1
Delta t (Mus musculus [4]): 0.4 °C | Delta t (Mus musculus [5]): 0.1 °C | Delta t (Mus musculus [6]): 2 °C | Delta t (Mus musculus [7]): 1.4 °C | Delta t (Mus musculus [8]): 0.2 °C | Delta t (Mus musculus [9]): 0.7 °C | Delta t (Mus musculus [10]): 0.1 °C | Delta t (Mus musculus [11]): 2.6 °C | Behavioral score (Rattus norvegicus [12]): 11.8 | Delta t (Mus musculus [13]): 0.2 °C | Behavioral score (Rattus norvegicus [14]): 13.8 | Delta t (Mus musculus [15]): 0.4 °C | LLR score (Rattus norvegicus [16]): 0.3 | Ki [1]: 1580 nM | Delta t (Mus musculus [17]): 0.2 °C | Delta t (Mus musculus [18]): 0.3 °C | Behavioral score (Rattus norvegicus [19]): 12.4 | LLR score (Rattus norvegicus [20]): 0.2 | Delta t (Mus musculus [21]): 0.2 °C | Delta t (Mus musculus [22]): 0.3 °C | Behavioral score (Rattus norvegicus [23]): 4 | Delta t (Mus musculus [24]): 1.5 °C | Delta t (Mus musculus [25]): 0.1 °C | LLR score (Rattus norvegicus [26]): 1.8 | Delta t (Mus musculus [27]): 0.9 °C | Delta t (Mus musculus [28]): 0.3 °C | Delta t (Mus musculus [29]): 0.1 °C | Delta t (Mus musculus [30]): 2 °C | LLR score (Rattus norvegicus [31]): 1.8 | Behavioral score (Rattus norvegicus [32]): 8 | Delta t (Mus musculus [33]): 0.3 °C | Delta t (Mus musculus [34]): 0.6 °C | LLR score (Rattus norvegicus [35]): 2.2 | LLR score (Rattus norvegicus [36]): 2.3 | Delta t (Mus musculus [37]): 0.9 °C | LLR score (Rattus norvegicus [38]): 0.2 | Ki [2]: 24 nM | Selectivity (Rattus norvegicus [3]): 66 | Delta t (Mus musculus [39]): 0.3 °C | LLR score (Rattus norvegicus [40]): 0.4 | Delta t (Mus musculus [41]): 1.3 °C | Behavioral score (Rattus norvegicus [42]): 4.8 | Delta t (Mus musculus [43]): 1.8 °C | Delta t (Mus musculus [44]): 0.9 °C

CCCCN1CCN(c2ccccc2OC)CC1
Ki [1]: 2280 nM | Ki [2]: 57 nM | Selectivity (Rattus norvegicus [3]): 40

CCN1CCN(c2ccccc2OC)CC1
Ki [1]: 3120 nM | Ki [2]: 203 nM | Selectivity (Rattus norvegicus [3]): 15
